Measurements: patent US5591741A, “Fungicidal spiroheterocyclic derivatives” (American Cyanamid Company, priority 1993, dated 1997)

Tests used:
Plasmopara viticola = experiment: Antisporulant activity against vine downy mildew (PVA); format: in vivo; details: vine leaves, antisporulant foliar spray, 600 ppm, 750 l/ha
Procedure, shortened: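 Cabernet Sauvignon vines (~8 cm) inoculated on lower leaf surfaces with 5×10^4 zoosporangia/ml, held 24 h at 21° C high humidity then 24 h glasshouse. Infected leaves sprayed underside with 600 ppm compound in 1:1 water/acetone, 0.04% Tween 20, 750 l/ha; 96 h glasshouse, 24 h humidity. Sporulating leaf area rated versus control.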

Alternaria solani = experiment: Activity against tomato early blight (AS); format: in vivo; details: Table VI; tomato seedlings, contact prophylactic foliar spray, 4 days
Procedure, shortened: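 Plants were challenged with A. solani conidia (10^4 spores/ml) 24 h after a protective foliar spray of compound in 50:50 acetone/water plus 0.04% Tween 20. Held humid at 21° C for 4 days, then percent leaf area with lesions was scored as a rating relative to controls.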

Botrytis cinerea = experiment: Direct protectant activity against broad bean grey mould (BCB); format: in vivo; details: direct protectant foliar spray, 600 ppm, 4 days
Procedure, shortened: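 Protectant foliar test: lesion coverage assessed 4 days after inoculation and rated relative to untreated or diluent-sprayed plants. Compound applied at 600 ppm to cv The Sutton leaves 24 h before 10^6 conidia/ml suspension; incubation at 22 °C in high humidity.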

Leptosphaeria nodorum = experiment: Activity against wheat leafspot (LN); format: in vivo; details: direct therapeutic foliar spray, 600 ppm, 6-8 days
Procedure, shortened: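 Therapeutic foliar spray: compound at 600 ppm applied to single-leaf wheat (cv Norman) 24 h after inoculation with 1.5×10^6 conidia/ml. Disease control scored after 6-8 days at 22° C and 70% humidity as lesions per leaf versus untreated or diluent-sprayed controls.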

[1] = test system: Erysiphe graminis f.sp. hordei; experiment: Activity against barley powdery mildew, direct therapeutic (EGT); format: in vivo; details: direct therapeutic foliar spray, 600 ppm, up to 7 days
Procedure, shortened: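 A curative spray at 600 ppm was applied to single-leaf Golden Promise barley inoculated with powdery mildew conidia the previous day. After up to 7 days at 18 °C and 40% humidity, disease control was rated from percent leaf area sporulating relative to untreated or diluent-sprayed controls.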

[2] = test system: Erysiphe graminis f.sp. hordei; experiment: Direct protectant activity against barley powdery mildew (EGP); format: in vivo; details: direct protectant foliar spray, 8 days
Procedure, shortened: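 Rating reflects percentage of leaf area with sporulation compared with untreated or diluent-sprayed controls. Protectant spray was applied to single-leaf barley (cv Golden Promise) 24 h before conidia inoculation. Plants were kept at 18 °C and 40% RH throughout, with 8 days of disease development.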

Phytophthora infestans = format: in vivo; details: tomato, direct protectant foliar spray
[3] = test system: Pseudocercosporella herpotrichoides; experiment: Activity against wheat eyespot in-vitro (PHI); format: cell-based; details: 10 ppm, 10 days, 20° C., mycelial growth
Procedure, shortened: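 Mycelial growth was scored after 10 days at 20 °C against untreated or diluent controls. The broth was half-strength potato dextrose, holding 10 ppm test compound (from acetone) and 5×10^4 fragments/ml of the eyespot fungus.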

Rhizoctonia solani = experiment: Activity against Rhizoctonia in-vitro (RSI); format: cell-based; details: 10 ppm, 10 days, 20° C., mycelial growth
Procedure, shortened: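 Compound at a final 10 ppm (acetone vehicle) in half-strength PDB, inoculated with 5×10^4 fragments/ml of shaken-culture R. solani mycelium. After incubation at 20° C for 10 days, growth scored as a rating versus untreated or diluent-treated controls.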

Venturia inaequalis = experiment: Activity against apple scab in-vitro (VII); format: cell-based; details: 10 ppm, 10 days, 20° C., mycelial growth
Procedure, shortened: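 V. inaequalis propagules (5×10^4/ml, malt agar-grown) were exposed in half-strength PDB to 10 ppm final test compound delivered in acetone. Growth was scored after incubation for 10 days at 20° C, as a rating relative to untreated or diluent-sprayed controls.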

Pyricularia oryzae = format: in vivo; details: rice seedlings, direct therapeutic foliar spray, 600 ppm, 4-5 days

Structure (SMILES) | disease control rating PVA (Plasmopara viticola) | disease control rating AS (Alternaria solani) | disease control rating BCB (Botrytis cinerea) | disease control rating LN (Leptosphaeria nodorum) | disease control rating EGT [1] | disease control rating EGP [2] | disease control rating PIP (Phytophthora infestans) | disease control rating PHI [3] | disease control rating RSI (Rhizoctonia solani) | disease control rating VII (Venturia inaequalis) | disease control rating PO (Pyricularia oryzae)
CCC(C)(C)C1CCC2(CC1)CC(NC1CCCCC1)CO2 (stereo not shown) [Compound 51] | 0 (less than 50% disease control) | 2 (greater than 80% disease control) | 0 (less than 50% disease control) | 0 (less than 50% disease control) | 2 (greater than 80% disease control) | 2 (greater than 80% disease control) | 2 (greater than 80% disease control) | 1 (about 50-80% disease control) | 1 (about 50-80% disease control) | 1 (about 50-80% disease control) | 0 (less than 50% disease control)
CCC(C)(C)C1CCC2(CC1)CC(N1CC(C)CC(C)C1)CO2 (stereo not shown) [Compound 52] | 0 (less than 50% disease control) | 0 (less than 50% disease control) | 0 (less than 50% disease control) | 0 (less than 50% disease control) | 2 (greater than 80% disease control) | 2 (greater than 80% disease control) | 0 (less than 50% disease control) | 1 (about 50-80% disease control) | 1 (about 50-80% disease control) | 1 (about 50-80% disease control) | 0 (less than 50% disease control)
CCC(C)(C)C1CCC2(CC1)CC(N1CC(C)OC(C)C1)CO2 (stereo not shown) [Compound 53] | 0 (less than 50% disease control) | 0 (less than 50% disease control) | 1 (about 50-80% disease control) | 0 (less than 50% disease control) | 2 (greater than 80% disease control) | 2 (greater than 80% disease control) | 0 (less than 50% disease control) | 1 (about 50-80% disease control) | 0 (less than 50% disease control) | 1 (about 50-80% disease control) | 0 (less than 50% disease control)
CCCCCNC1COC2(CCC(c3ccccc3)CC2)C1 (stereo not shown) [Compound 54] | 0 (less than 50% disease control) | 0 (less than 50% disease control) | 0 (less than 50% disease control) | 0 (less than 50% disease control) | 2 (greater than 80% disease control) | 2 (greater than 80% disease control) | 0 (less than 50% disease control) | 0 (less than 50% disease control) | 0 (less than 50% disease control) | 1 (about 50-80% disease control) | 0 (less than 50% disease control)
CCCCN(CCCC)C1COC2(CCC(c3ccccc3)CC2)C1 (stereo not shown) [Compound 55] | 0 (less than 50% disease control) | 0 (less than 50% disease control) | 2 (greater than 80% disease control) | 1 (about 50-80% disease control) | 2 (greater than 80% disease control) | 2 (greater than 80% disease control) | 0 (less than 50% disease control) | 0 (less than 50% disease control) | 0 (less than 50% disease control) | 1 (about 50-80% disease control) | 0 (less than 50% disease control)
c1ccc(C2CCC3(CC2)CC(NC2CCCCC2)CO3)cc1 (stereo not shown) [Compound 56] | 0 (less than 50% disease control) | 0 (less than 50% disease control) | 2 (greater than 80% disease control) | 2 (greater than 80% disease control) | 2 (greater than 80% disease control) | 2 (greater than 80% disease control) | 0 (less than 50% disease control) | 0 (less than 50% disease control) | 0 (less than 50% disease control) | 1 (about 50-80% disease control) | 0 (less than 50% disease control)
CC1CC(C)CN(C2COC3(CCC(c4ccccc4)CC3)C2)C1 (stereo not shown) [Compound 57] | 0 (less than 50% disease control) | 0 (less than 50% disease control) | 0 (less than 50% disease control) | 1 (about 50-80% disease control) | 2 (greater than 80% disease control) | 2 (greater than 80% disease control) | 0 (less than 50% disease control) | 0 (less than 50% disease control) | 0 (less than 50% disease control) | 1 (about 50-80% disease control) | 0 (less than 50% disease control)
CC1CN(C2COC3(CCC(c4ccccc4)CC3)C2)CC(C)O1 (stereo not shown) [Compound 58] | 0 (less than 50% disease control) | 0 (less than 50% disease control) | 0 (less than 50% disease control) | 2 (greater than 80% disease control) | 2 (greater than 80% disease control) | 2 (greater than 80% disease control) | 0 (less than 50% disease control) | 0 (less than 50% disease control) | 0 (less than 50% disease control) | 1 (about 50-80% disease control) | 0 (less than 50% disease control)
